US8629284B2, “Chemical compounds” (Syngenta Crop Protection, LLC, priority 2008, dated 2014)

How the values were obtained:
Myzus persicae [1] = experiment: B2: Myzus persicae (green peach aphid), mixed population, feeding/residual contact activity, preventive; format: in vivo; details: foliar, 144 h, sunflower leaf discs sprayed with 200 ppm, 6 days incubation, read-out: control of Myzus persicae (mortality)
Method: B2: Myzus persicae (green peach aphid) (mixed population, feeding/residual contact activity, preventive)
Sunflower leaf discs were placed on agar in a 24-well microtiter plate and sprayed with test solutions of 200 ppm. After drying, the leaf discs were infested with an aphid population of mixed ages. After an incubation period of 6 days, samples were checked for mortality and special effects (e.g. phytotoxicity).

Myzus persicae [2] = experiment: B3: Myzus persicae (green peach aphid), mixed population, systemic/feeding activity, curative; format: in vivo; details: 144 h, roots of infested pea seedlings in test solution of 24 ppm, 6 days after introduction, read-out: control of Myzus persicae (mortality)
Excerpt: B3: Myzus persicae (green peach aphid) (mixed population, systemic/feeding activity, curative)
Roots of pea seedlings, infested with an aphid population of mixed ages, were placed directly in the test solutions of 24 ppm. 6 days after introduction, samples were checked for mortality and special effects on the plant.

Row | Compound | mortality at 200 ppm (Myzus persicae [1]) [%] | mortality at 24 ppm (Myzus persicae [2]) [%]
1 | CCNC1=NS(=O)(=O)c2cccc(F)c21 [Compound P1.15, N-Ethyl-4-fluoro-1,2-benzisothiazol-3-amine 1,1-dioxide] | ≥ 65 | ≥ 80
2 | N=C1c2c(F)cccc2S(=O)(=O)N1CC1CC1 [Compound P2.3, 4-Fluoro-2-cyclopropylmethyl-1,2-benzisothiazol-3(2H)-imine 1,1-dioxide] |  | ≥ 80
